According to PMC6149751, “Spiro[pyrrolidine-3,3′-oxindoles] and Their Indoline Analogues as New 5-HT6 Receptor Chemotypes” (Molecules : A Journal of Synthetic Chemistry and Natural …, 2017):
Read-outs that look alike come from different tables or passages of the source.

Key:
Format in all cases: binding
5-HT2AR = molecular target: T1, 5-HT2AR (Homo sapiens, UniProt P28223); assay: [3H]-Ketanserin displacement, CHO-K1 membranes
T1 construct: gene HTR2A; full-length human receptor expressed from plasmid in CHO-K1 cells (PerkinElmer); membranes
Excerpt: [3H]-Ketanserin displacement, CHO-K1 membranes on 5-HT2AR

5-HT7bR = molecular target: T2, 5-HT7bR (Homo sapiens, UniProt P34969); assay: [3H]-5-CT displacement, HEK293 membranes
T2 construct: gene HTR7; human splice isoform 5-HT7b stably expressed in HEK293 cells; membranes
Excerpt: [3H]-5-CT displacement, HEK293 membranes on 5-HT7bR

5-HT6R = molecular target: T3, 5-HT6R (Homo sapiens, UniProt P50406); assay: [3H]-LSD displacement, HEK293 membranes
T3 construct: gene HTR6; full-length human receptor stably expressed in HEK293 cells; membranes
Excerpt: [3H]-LSD displacement, HEK293 membranes on 5-HT6R

5-HT1AR = molecular target: T4, 5-HT1AR (Homo sapiens, UniProt P08908); assay: [3H]-8-OH-DPAT displacement, HEK293 membranes
T4 construct: gene HTR1A; full-length human receptor stably expressed in HEK293 cells; membranes
T4 sequence (P08908 1-422): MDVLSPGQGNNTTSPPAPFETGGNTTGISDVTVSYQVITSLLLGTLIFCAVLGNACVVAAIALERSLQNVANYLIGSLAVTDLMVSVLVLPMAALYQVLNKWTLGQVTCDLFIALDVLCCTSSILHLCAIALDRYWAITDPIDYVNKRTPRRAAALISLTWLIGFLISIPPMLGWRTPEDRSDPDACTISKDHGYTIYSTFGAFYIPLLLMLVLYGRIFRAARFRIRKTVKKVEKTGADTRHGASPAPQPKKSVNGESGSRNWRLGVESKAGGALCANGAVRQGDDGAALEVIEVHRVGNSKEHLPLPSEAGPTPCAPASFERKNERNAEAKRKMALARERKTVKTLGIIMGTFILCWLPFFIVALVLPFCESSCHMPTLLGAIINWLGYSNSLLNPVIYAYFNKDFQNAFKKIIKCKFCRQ
Excerpt: [3H]-8-OH-DPAT displacement, HEK293 membranes on 5-HT1AR

T1 sequence (P28223 whole entry): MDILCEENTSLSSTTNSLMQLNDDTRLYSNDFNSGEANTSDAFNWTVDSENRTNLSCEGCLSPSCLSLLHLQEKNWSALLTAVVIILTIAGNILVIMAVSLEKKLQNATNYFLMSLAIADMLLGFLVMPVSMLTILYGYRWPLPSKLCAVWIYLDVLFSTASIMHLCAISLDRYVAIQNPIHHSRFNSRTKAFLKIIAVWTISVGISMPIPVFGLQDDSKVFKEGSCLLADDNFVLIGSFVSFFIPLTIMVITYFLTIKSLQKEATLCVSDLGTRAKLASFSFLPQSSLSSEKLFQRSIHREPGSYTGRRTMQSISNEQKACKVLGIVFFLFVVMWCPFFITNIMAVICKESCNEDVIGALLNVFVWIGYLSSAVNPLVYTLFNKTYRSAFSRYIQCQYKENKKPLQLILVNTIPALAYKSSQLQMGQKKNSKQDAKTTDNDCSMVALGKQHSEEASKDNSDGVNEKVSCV
T2 sequence (P34969 1-432): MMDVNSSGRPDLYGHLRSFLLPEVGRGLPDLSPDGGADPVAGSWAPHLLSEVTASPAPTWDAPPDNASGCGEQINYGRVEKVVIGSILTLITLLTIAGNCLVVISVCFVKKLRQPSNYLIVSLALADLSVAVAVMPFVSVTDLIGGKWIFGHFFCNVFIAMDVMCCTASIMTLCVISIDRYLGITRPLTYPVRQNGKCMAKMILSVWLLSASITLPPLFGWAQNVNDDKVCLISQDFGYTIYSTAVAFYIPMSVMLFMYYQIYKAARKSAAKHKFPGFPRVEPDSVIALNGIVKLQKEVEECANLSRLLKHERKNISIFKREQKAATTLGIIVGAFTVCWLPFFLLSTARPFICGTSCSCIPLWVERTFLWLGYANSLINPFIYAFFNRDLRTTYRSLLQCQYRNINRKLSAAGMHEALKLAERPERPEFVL
T3 sequence (P50406 whole entry): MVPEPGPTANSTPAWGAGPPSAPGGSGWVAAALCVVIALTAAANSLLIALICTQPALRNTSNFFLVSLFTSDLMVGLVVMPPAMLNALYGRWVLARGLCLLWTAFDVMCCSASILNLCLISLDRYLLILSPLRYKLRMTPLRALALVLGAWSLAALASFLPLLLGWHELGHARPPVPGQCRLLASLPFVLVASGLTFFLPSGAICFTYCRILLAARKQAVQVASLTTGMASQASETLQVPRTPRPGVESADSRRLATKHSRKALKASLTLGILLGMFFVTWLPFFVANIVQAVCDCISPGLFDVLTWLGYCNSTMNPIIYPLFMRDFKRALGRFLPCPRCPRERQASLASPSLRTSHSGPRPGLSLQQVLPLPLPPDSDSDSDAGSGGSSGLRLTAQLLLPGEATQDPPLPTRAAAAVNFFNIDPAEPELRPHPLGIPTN

O=S(=O)(c1ccccc1)N1CC2(CCN(Cc3ccccc3)C2)c2ccccc21 (centres unmarked) [39a, 1′-Benzyl-1-(phenylsulfonyl)spiro[indoline-3,3′-pyrrolidine]]
Ki (5-HT2AR; read-out: 5-HT2A): 4.76 µM | Ki (5-HT7bR; read-out: 5-HT7): 55.8 µM | Ki (5-HT6R; read-out: 5-HT6): 0.76 µM

O=S(=O)(c1ccccc1)N1CC2(CCN(Cc3ccncc3)C2)c2ccccc21 (centres unmarked) [39b, 1-(Phenylsulfonyl)-1′-(pyridin-4-ylmethyl)spiro[indoline-3,3′-pyrrolidine]]
Ki (5-HT2AR): 26.9 µM | Ki (5-HT6R): 6.6 µM

CN1CCC2(C1)CN(S(=O)(=O)c1ccccc1)c1ccccc12 (centres unmarked) [40a, 1′-Methyl-1-(phenylsulfonyl)spiro[indoline-3,3′-pyrrolidine]]
Ki (5-HT2AR; read-out: 5-HT2A): 4.52 µM | Ki (5-HT7bR; read-out: 5-HT7): 40.2 µM | Ki (5-HT6R; read-out: 5-HT6): 1.85 µM

CCN1CCC2(C1)CN(S(=O)(=O)c1ccccc1)c1ccccc12 (centres unmarked) [40b, 1′-Ethyl-1-(phenylsulfonyl)spiro[indoline-3,3′-pyrrolidine]]
Ki (5-HT2AR; read-out: 5-HT2A): 3.82 µM | Ki (5-HT6R; read-out: 5-HT6): 2.42 µM

O=S(=O)(c1ccccc1)N1CC2(CCN(Cc3ccccc3F)C2)c2ccccc21 (centres unmarked) [44a, 1′-(2-Fluorobenzyl)-1-(phenylsulfonyl)spiro[indoline-3,3′-pyrrolidine]]
Ki (5-HT7bR): 78.9 µM | Ki (5-HT6R): 4.53 µM

O=S(=O)(c1ccccc1)N1CC2(CCN(Cc3cccc(F)c3)C2)c2ccccc21 (centres unmarked) [44b, 1′-(3-Fluorobenzyl)-1-(phenylsulfonyl)spiro[indoline-3,3′-pyrrolidine]]
Ki (5-HT7bR; read-out: 5-HT7): 31.5 µM | Ki (5-HT6R; read-out: 5-HT6): 1.97 µM

O=S(=O)(c1ccccc1)N1CC2(CCN(Cc3ccc(F)cc3)C2)c2ccccc21 (centres unmarked) [44c, 1′-(4-Fluorobenzyl)-1-(phenylsulfonyl)spiro[indoline-3,3′-pyrrolidine]]
Ki (5-HT7bR; read-out: 5-HT7): 15.7 µM | Ki (5-HT6R; read-out: 5-HT6): 1.77 µM

O=S(=O)(c1ccccc1F)N1CC2(CCN(Cc3ccccc3)C2)c2ccccc21 (centres unmarked) [46a, 1′-Benzyl-1-((2-fluorophenyl)sulfonyl)spiro[indoline-3,3′-pyrrolidine]]
Ki (5-HT7bR; read-out: 5-HT7): 42.6 µM | Ki (5-HT6R; read-out: 5-HT6): 0.19 µM

O=S(=O)(c1cccc(F)c1)N1CC2(CCN(Cc3ccccc3)C2)c2ccccc21 (centres unmarked) [46b, 1′-Benzyl-1-((3-fluorophenyl)sulfonyl)spiro[indoline-3,3′-pyrrolidine]]
Ki (5-HT7bR; read-out: 5-HT7): 76 µM | Ki (5-HT6R; read-out: 5-HT6): 0.71 µM

O=S(=O)(c1ccc(F)cc1)N1CC2(CCN(Cc3ccccc3)C2)c2ccccc21 (centres unmarked) [46c, 1′-Benzyl-1-((4-fluorophenyl)sulfonyl)spiro[indoline-3,3′-pyrrolidine]]
Ki (5-HT7bR; read-out: 5-HT7): 56.1 µM | Ki (5-HT6R; read-out: 5-HT6): 2.45 µM

O=C1Nc2ccccc2C12CCNC2c1cccc(F)c1 (centres unmarked) [compound 6, 2′-(3-fluorophenyl)spiro[indoline-3,3′-pyrrolidin]-2-one]
Ki (5-HT2AR; read-out: 5-HT2A): 5.05 µM | Ki (5-HT7bR; read-out: 5-HT7): 8.48 µM | Ki (5-HT1AR; read-out: 5-HT1A): 16.9 µM | Ki (5-HT6R; read-out: 5-HT6): 6.75 µM

COc1ccc(C2NCCC23C(=O)Nc2ccccc23)cc1OC (centres unmarked) [compound 7, 7]
Ki (5-HT2AR): 5.45 µM | Ki (5-HT7bR): 2.69 µM | Ki (5-HT1AR): 7.07 µM | Ki (5-HT6R): 2.26 µM

O=C1Nc2ccccc2C12CCNC2c1ccc(OCc2ccc(F)cc2)cc1 (centres unmarked) [compound 8, 8]
Ki (5-HT2AR): 2.28 µM | Ki (5-HT7bR): 1.09 µM | Ki (5-HT1AR): 1.74 µM | Ki (5-HT6R): 3.18 µM

O=C1Nc2ccccc2C12CCNC2c1ccc2c(c1)OCO2 (centres unmarked) [compound 9, 9]
Ki (5-HT2AR): 2.69 µM | Ki (5-HT7bR): 8.82 µM | Ki (5-HT1AR): 9.84 µM | Ki (5-HT6R): 3.2 µM

O=C1Nc2ccccc2C12CCNC2c1ccc2c(c1)OCCO2 (centres unmarked) [compound 10, 10]
Ki (5-HT2AR): 4.33 µM | Ki (5-HT7bR): 12.7 µM | Ki (5-HT1AR): 12.1 µM | Ki (5-HT6R): 4.11 µM

N#Cc1cccnc1Oc1ccc(C2NCCC23C(=O)Nc2ccccc23)cc1 (centres unmarked) [compound 11, 11]
Ki (5-HT2AR): 8.68 µM | Ki (5-HT7bR): 59 µM | Ki (5-HT1AR): 49.1 µM | Ki (5-HT6R): 6.2 µM

O=C1Nc2ccccc2C12CCNC2c1cccc2cccnc12 (centres unmarked) [compound 12, 12]
Ki (5-HT2AR): 1.12 µM | Ki (5-HT7bR): 10.5 µM | Ki (5-HT1AR): 45.7 µM | Ki (5-HT6R): 6.63 µM

COc1cc(C2NCCC23C(=O)Nc2ccccc23)ccc1OC(F)F (centres unmarked) [compound 13, 13]
Ki (5-HT2AR): 5.77 µM | Ki (5-HT7bR): 7.49 µM | Ki (5-HT1AR): 7.14 µM | Ki (5-HT6R): 7.73 µM

CC(C)c1ccc(C2NCCC23C(=O)Nc2ccccc23)cc1 (centres unmarked) [compound 14, 14]
Ki (5-HT2AR): 4.54 µM | Ki (5-HT7bR): 8.98 µM | Ki (5-HT1AR): 7.76 µM | Ki (5-HT6R): 8.62 µM

Cn1c(=O)n(C)c2cc(C3NCCC34C(=O)Nc3ccccc34)ccc21 (centres unmarked) [compound 15, 15]
Ki (5-HT2AR): 23.7 µM | Ki (5-HT7bR): 46.7 µM | Ki (5-HT1AR): 40.5 µM | Ki (5-HT6R): 9.49 µM

O=C1Nc2ccc(F)cc2C12CCNC2c1ccc(F)c(Cl)c1 (centres unmarked) [compound 16, 16]
Ki (5-HT2AR): 53.9 µM | Ki (5-HT6R): 16.5 µM

O=C1N(S(=O)(=O)c2ccccc2)c2ccccc2C12CCNC2 (centres unmarked) [compound 17, 1-(Phenylsulfonyl)spiro[indoline-3,3′-pyrrolidin]-2-one]
Ki (5-HT7bR; read-out: 5-HT7): 58.3 µM | Ki (5-HT6R; read-out: 5-HT6): 12.3 µM

O=C1Nc2ccccc2C12CCN(S(=O)(=O)c1ccccc1)C2 (centres unmarked) [compound 18, 1′-(Phenylsulfonyl)spiro[indoline-3,3′-pyrrolidin]-2-one]
Ki (5-HT2AR): 87.4 µM | Ki (5-HT6R): 6.86 µM
